The target in the experiment is human phosphoglucose isomerase (hPGI) / autocrine motility factor (Homo sapiens, UniProt P06744). Put plainly: end-point isomerization kinetics. Format: biochemical.

The structures appear in SMILES notation. pKi: −log10 of the molar value.

One may read the pKi as −log10 of the Ki, conventionally taken in molar units. Higher therefore signals a small Ki.

Regarding `O=C(O)[C@H](O)[C@@H](O)[C@H](O)[C@H](O)COP(=O)(O)O` [6P-GA, 6-phosphogluconate], the pKi was 4.92.

The record behind these values is publication PMC5668625 (Biochemistry and Biophysics Reports, 2015).
